Assay results as given in the supplement of paper PMC9013687.

Experiments:
Danio rerio embryo [1] = tested on: Danio rerio embryo
Description: (§1)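 Zebrafish embryos (UFZ-OBI strain) were exposed from 2 hpf for 48 h (2 dpf) or 96 h (4 dpf) at 28 °C; spontaneous tail coiling was scored at 25 hpf. Morphological features from automated image analysis (FishInspector), heart rate and locomotor response were fitted with drc models. Quantal endpoints were dichotomised at 2.5 SD from controls and fitted with a log-logistic model; heart rate, pigmentation and STC were normalised to the replicate control mean. Betamethasone was tested as betamethasone dipropionate, diflorasone as diflorasone diacetate.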

Danio rerio embryo [2] = conditions: exposure time: 4 dpf
Description: as §1

Danio rerio embryo [3] = test: EC50 Curvature_Increase
Description: as §1

Danio rerio embryo [4] = test: EC50 Body length_Decrease
Description: as §1

Danio rerio embryo [5] = test: EC50 Bladder size_Decrease; conditions: exposure time: 4 dpf
Description: as §1

Danio rerio embryo [6] = test: EC50 Pericard size_Increase; conditions: exposure time: 4 dpf
Description: as §1

Danio rerio embryo [7] = test: EC50 Yolk sac size_Increase; conditions: exposure time: 4 dpf
Description: as §1

Danio rerio embryo [8] = test: EC50 Eye-jaw distance_Decrease; conditions: exposure time: 4 dpf
Description: as §1

Danio rerio embryo [9] = test: EC50 Otolith-eye distance_Decrease; conditions: exposure time: 4 dpf
Description: as §1

Danio rerio embryo [10] = test: EC10 LMR dark; higher = less potent; conditions: exposure time: 4 dpf
Description: as §1

Danio rerio embryo [11] = test: EC20 LMR dark; higher = less potent; conditions: exposure time: 4 dpf
Description: as §1

Danio rerio embryo [12] = test: EC20 Any effect; higher = less potent
Description: as §1

Danio rerio embryo [13] = test: EC10 Any effect; higher = less potent
Description: as §1

Danio rerio embryo [14] = test: EC10 Curvature_Increase; higher = less potent
Description: as §1

Danio rerio embryo [15] = test: EC20 Curvature_Increase; higher = less potent
Description: as §1

Danio rerio embryo [16] = test: EC20 Body length_Decrease; higher = less potent
Description: as §1

Danio rerio embryo [17] = test: EC10 Body length_Decrease; higher = less potent
Description: as §1

Danio rerio embryo [18] = test: EC10 Bladder size_Decrease; higher = less potent; conditions: exposure time: 4 dpf
Description: as §1

Danio rerio embryo [19] = test: EC20 Bladder size_Decrease; higher = less potent; conditions: exposure time: 4 dpf
Description: as §1

Danio rerio embryo [20] = test: EC20 Yolk sac size_Increase; higher = less potent; conditions: exposure time: 4 dpf
Description: as §1

Danio rerio embryo [21] = test: EC20 Pericard size_Increase; higher = less potent; conditions: exposure time: 4 dpf
Description: as §1

Danio rerio embryo [22] = test: EC10 Yolk sac size_Increase; higher = less potent; conditions: exposure time: 4 dpf
Description: as §1

Danio rerio embryo [23] = test: EC10 Pericard size_Increase; higher = less potent; conditions: exposure time: 4 dpf
Description: as §1

Danio rerio embryo [24] = test: EC20 Eye-jaw distance_Decrease; higher = less potent; conditions: exposure time: 4 dpf
Description: as §1

Danio rerio embryo [25] = test: EC10 Eye-jaw distance_Decrease; higher = less potent; conditions: exposure time: 4 dpf
Description: as §1

Danio rerio embryo [26] = test: EC20 Otolith-eye distance_Decrease; higher = less potent; conditions: exposure time: 4 dpf
Description: as §1

Danio rerio embryo [27] = test: EC10 Otolith-eye distance_Decrease; higher = less potent; conditions: exposure time: 4 dpf
Description: as §1

Danio rerio embryo [28] = test: spontaneous tail coiling frequency (coils/min/embryo); higher = more spontaneous movement; conditions: 25 hpf
Description: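 Spontaneous tail coilings of zebrafish embryos exposed from 2 hpf were recorded at 24-25 hpf in 1-min videos and detected by a KNIME workflow from grey-value variance. Betamethasone was tested as the dipropionate, diflorasone as the diacetate.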

C[Si](Cn1cncn1)(c1ccc(F)cc1)c1ccc(F)cc1 [Flusilazole]
Conditions	EC10 Any effect [µM]	EC10 Body length Decrease [µM]	EC10 Curvature Increase [µM]	EC20 Any effect [µM]	EC20 Body length Decrease [µM]	EC20 Curvature Increase [µM]	EC50 Any effect [µM]	EC50 Body length Decrease [µM]	EC50 Curvature Increase [µM]	EC50 STC decrease [µM]	spontaneous tail coiling frequency
Danio rerio embryo [1], exposure time: 2 dpf	–	–	–	–	–	–	7.6	–	–	–	–
Danio rerio embryo [1], exposure time: 4 dpf	–	–	–	–	–	–	2.65	–	–	–	–
Danio rerio embryo [1], exposure time: 25 h	–	–	–	–	–	–	–	–	–	8.34	–
Danio rerio embryo [3], exposure time: 2 dpf	–	–	–	–	–	–	–	–	9.58	–	–
Danio rerio embryo [3], exposure time: 4 dpf	–	–	–	–	–	–	–	–	5.85	–	–
Danio rerio embryo [4], exposure time: 2 dpf	–	–	–	–	–	–	–	10.3	–	–	–
Danio rerio embryo [4], exposure time: 4 dpf	–	–	–	–	–	–	–	3.04	–	–	–
Danio rerio embryo [12], exposure time: 2 dpf	–	–	–	6.04	–	–	–	–	–	–	–
Danio rerio embryo [12], exposure time: 4 dpf	–	–	–	1.92	–	–	–	–	–	–	–
Danio rerio embryo [13], exposure time: 2 dpf	5.28	–	–	–	–	–	–	–	–	–	–
Danio rerio embryo [13], exposure time: 4 dpf	1.6	–	–	–	–	–	–	–	–	–	–
Danio rerio embryo [14], exposure time: 2 dpf	–	–	6.73	–	–	–	–	–	–	–	–
Danio rerio embryo [14], exposure time: 4 dpf	–	–	2.07	–	–	–	–	–	–	–	–
Danio rerio embryo [15], exposure time: 2 dpf	–	–	–	–	–	7.67	–	–	–	–	–
Danio rerio embryo [15], exposure time: 4 dpf	–	–	–	–	–	3.03	–	–	–	–	–
Danio rerio embryo [16], exposure time: 2 dpf	–	–	–	–	8.01	–	–	–	–	–	–
Danio rerio embryo [16], exposure time: 4 dpf	–	–	–	–	2.55	–	–	–	–	–	–
Danio rerio embryo [17], exposure time: 2 dpf	–	6.91	–	–	–	–	–	–	–	–	–
Danio rerio embryo [17], exposure time: 4 dpf	–	2.31	–	–	–	–	–	–	–	–	–
Danio rerio embryo [28], 1.98167 µM	–	–	–	–	–	–	–	–	–	–	2.65
Danio rerio embryo [28], 3.96335 µM	–	–	–	–	–	–	–	–	–	–	1.93
Danio rerio embryo [28], 6.3 µM	–	–	–	–	–	–	–	–	–	–	1.95
Danio rerio embryo [28], 7.92669 µM	–	–	–	–	–	–	–	–	–	–	1.22
Danio rerio embryo [28], 9.4 µM	–	–	–	–	–	–	–	–	–	–	1.84
Danio rerio embryo [28], 14.1 µM	–	–	–	–	–	–	–	–	–	–	1.52
Danio rerio embryo [28], 15.8534 µM	–	–	–	–	–	–	–	–	–	–	0
Danio rerio embryo [28], 21.1 µM	–	–	–	–	–	–	–	–	–	–	0
Danio rerio embryo [28], 31.7 µM	–	–	–	–	–	–	–	–	–	–	0
Danio rerio embryo [28], 31.7068 µM	–	–	–	–	–	–	–	–	–	–	0
Danio rerio embryo [28], 47.6 µM	–	–	–	–	–	–	–	–	–	–	0

Conditions	EC10 Bladder size Decrease [µM]	EC10 Eye-jaw distance Decrease [µM]	EC10 LMR dark [µM]	EC10 Otolith-eye distance Decrease [µM]	EC10 Pericard size Increase [µM]	EC10 Yolk sac size Increase [µM]	EC20 Bladder size Decrease [µM]	EC20 Eye-jaw distance Decrease [µM]	EC20 LMR dark [µM]	EC20 Otolith-eye distance Decrease [µM]	EC20 Pericard size Increase [µM]	EC20 Yolk sac size Increase [µM]	EC50 Bladder size Decrease [µM]	EC50 Eye-jaw distance Decrease [µM]	EC50 LMR dark [µM]	EC50 Otolith-eye distance Decrease [µM]	EC50 Pericard size Increase [µM]	EC50 Yolk sac size Increase [µM]
Danio rerio embryo [2]	–	–	–	–	–	–	–	–	–	–	–	–	–	–	2.77	–	–	–
Danio rerio embryo [5]	–	–	–	–	–	–	–	–	–	–	–	–	2.14	–	–	–	–	–
Danio rerio embryo [6]	–	–	–	–	–	–	–	–	–	–	–	–	–	–	–	–	6.51	–
Danio rerio embryo [7]	–	–	–	–	–	–	–	–	–	–	–	–	–	–	–	–	–	10.1
Danio rerio embryo [8]	–	–	–	–	–	–	–	–	–	–	–	–	–	3.73	–	–	–	–
Danio rerio embryo [9]	–	–	–	–	–	–	–	–	–	–	–	–	–	–	–	5.51	–	–
Danio rerio embryo [10]	–	–	1.3	–	–	–	–	–	–	–	–	–	–	–	–	–	–	–
Danio rerio embryo [11]	–	–	–	–	–	–	–	–	1.72	–	–	–	–	–	–	–	–	–
Danio rerio embryo [18]	1.46	–	–	–	–	–	–	–	–	–	–	–	–	–	–	–	–	–
Danio rerio embryo [19]	–	–	–	–	–	–	1.69	–	–	–	–	–	–	–	–	–	–	–
Danio rerio embryo [20]	–	–	–	–	–	–	–	–	–	–	–	5.53	–	–	–	–	–	–
Danio rerio embryo [21]	–	–	–	–	–	–	–	–	–	–	5.53	–	–	–	–	–	–	–
Danio rerio embryo [22]	–	–	–	–	–	3.89	–	–	–	–	–	–	–	–	–	–	–	–
Danio rerio embryo [23]	–	–	–	–	5.02	–	–	–	–	–	–	–	–	–	–	–	–	–
Danio rerio embryo [24]	–	–	–	–	–	–	–	2.67	–	–	–	–	–	–	–	–	–	–
Danio rerio embryo [25]	–	2.2	–	–	–	–	–	–	–	–	–	–	–	–	–	–	–	–
Danio rerio embryo [26]	–	–	–	–	–	–	–	–	–	4.25	–	–	–	–	–	–	–	–
Danio rerio embryo [27]	–	–	–	3.65	–	–	–	–	–	–	–	–	–	–	–	–	–	–
